Measurements: article PMC10550967, “Structure of the ceramide-bound SPOTS complex” (Nature Communications, 2023)

Columns and labels:
[1] = target: T1, SPOTS complex (monomeric, with Sac1) (Saccharomyces cerevisiae, UniProt P25045+P40970+P53224, P53224:S51A/P53224:S52A/P53224:S53A); assay: colorimetric CoA release assay; type: biochemical; conditions: 30 µM PLP, 0.008% GDN, pH 6.8, RT, 1 h, FLAG-purified complex (mixture of SPOT and SPOTS), catalytic site Lcb1/Lcb2
T1 construct: gene LCB1; co-overexpressed in S. cerevisiae (GAL1 promoter); 3xFLAG inserted between codons 9 and 10 of LCB1, kept; GDN-solubilised; monomeric 1:1:1:1:1; Site chains differ by ligand (see pair conditions); The purified sample also holds Sac1-free SPOT monomer and dimer; with Serine palmitoyltransferase-regulating protein TSC3; Phosphoinositide phosphatase SAC1
T1 sequence (P25045 whole entry, one chain of several): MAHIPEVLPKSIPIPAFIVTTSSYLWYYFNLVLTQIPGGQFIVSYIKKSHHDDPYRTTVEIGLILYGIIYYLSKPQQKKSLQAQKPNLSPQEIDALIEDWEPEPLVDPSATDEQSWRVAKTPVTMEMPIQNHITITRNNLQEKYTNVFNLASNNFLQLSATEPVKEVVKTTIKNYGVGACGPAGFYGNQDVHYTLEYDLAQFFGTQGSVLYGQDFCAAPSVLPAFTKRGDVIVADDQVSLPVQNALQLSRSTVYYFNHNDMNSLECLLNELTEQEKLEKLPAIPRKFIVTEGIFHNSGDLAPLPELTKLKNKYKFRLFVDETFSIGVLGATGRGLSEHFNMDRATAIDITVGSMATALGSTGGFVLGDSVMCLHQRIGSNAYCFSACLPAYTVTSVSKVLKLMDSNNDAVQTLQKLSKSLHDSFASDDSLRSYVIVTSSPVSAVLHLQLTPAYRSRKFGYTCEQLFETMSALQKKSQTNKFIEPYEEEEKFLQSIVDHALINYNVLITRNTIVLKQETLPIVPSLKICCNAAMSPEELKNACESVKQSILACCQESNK
T1 sequence (P53224 whole entry S51A/S52A/S53A, one chain of several): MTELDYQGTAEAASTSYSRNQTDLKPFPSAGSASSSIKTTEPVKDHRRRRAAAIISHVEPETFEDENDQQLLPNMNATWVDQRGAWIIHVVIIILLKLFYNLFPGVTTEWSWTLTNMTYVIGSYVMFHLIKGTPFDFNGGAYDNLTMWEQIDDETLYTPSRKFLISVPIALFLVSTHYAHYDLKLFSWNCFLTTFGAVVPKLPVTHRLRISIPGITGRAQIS
T1 sequence (Q3E790 whole entry partner, one chain of several): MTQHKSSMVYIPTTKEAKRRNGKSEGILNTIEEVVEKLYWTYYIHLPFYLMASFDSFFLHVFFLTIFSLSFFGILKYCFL
T1 sequence (P32368 whole entry partner, one chain of several): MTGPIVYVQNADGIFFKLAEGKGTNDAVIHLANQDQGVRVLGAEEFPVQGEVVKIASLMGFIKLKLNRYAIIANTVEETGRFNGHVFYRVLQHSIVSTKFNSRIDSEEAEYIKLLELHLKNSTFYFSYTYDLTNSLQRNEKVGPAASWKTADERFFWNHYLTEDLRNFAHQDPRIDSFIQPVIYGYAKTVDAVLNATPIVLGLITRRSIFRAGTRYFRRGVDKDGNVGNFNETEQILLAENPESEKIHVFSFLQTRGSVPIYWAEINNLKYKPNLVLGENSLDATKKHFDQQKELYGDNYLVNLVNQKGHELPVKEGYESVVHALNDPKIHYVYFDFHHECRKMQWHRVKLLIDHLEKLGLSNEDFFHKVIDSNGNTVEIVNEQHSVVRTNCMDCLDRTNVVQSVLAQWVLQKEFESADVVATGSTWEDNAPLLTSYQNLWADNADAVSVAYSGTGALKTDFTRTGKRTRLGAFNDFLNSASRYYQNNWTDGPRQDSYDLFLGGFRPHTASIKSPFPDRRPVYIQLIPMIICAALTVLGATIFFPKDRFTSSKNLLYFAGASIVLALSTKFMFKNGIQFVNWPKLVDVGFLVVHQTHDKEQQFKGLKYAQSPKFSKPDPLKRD

SPOT complex (monomer) = target: T2, SPOT complex (monomer) (Saccharomyces cerevisiae, UniProt P25045+P40970+P53224, P53224:S51A/P53224:S52A/P53224:S53A); assay: cryo-EM structure, […] Å; type: binding; conditions: site: pocket of Lcb1 TM0a helix and Orm1 TM4, three molecules; co-purified endogenous lipid
T2 construct: gene LCB1; same preparation as P1, cryo-EM class without Sac1; monomeric; 3xFLAG inserted between codons 9 and 10 of LCB1; GDN-solubilised; Site chains differ by ligand (see pair conditions); with Serine palmitoyltransferase-regulating protein TSC3
T2 sequence (P25045 whole entry, one chain of several): as the sequence (P25045 whole entry, one chain of several) above
T2 sequence (P53224 whole entry S51A/S52A/S53A, one chain of several): as the sequence (P53224 whole entry S51A/S52A/S53A, one chain of several) above
T2 sequence (Q3E790 whole entry partner, one chain of several): as the sequence (Q3E790 whole entry partner, one chain of several) above

[2] = target: T1, SPOTS complex (monomeric, with Sac1); assay: cryo-EM structure, […] Å; coupled enzymatic assay of bound sterol; type: binding; conditions: site: pocket of Lcb1 TM0a helix and Orm1 TM4, three molecules; co-purified endogenous lipid
[3] = target: the molecule itself; assay: cryo-EM structure; single-particle cryo-EM of the FLAG-purified complex in GDN, 10 mg/ml; one dataset gave a C2 symmetric SPOT dimer, a SPOT monomer and a SPOTS monomer with Sac1

## N[C@@H](CO)C(=O)O [L-serine]
[1]; 100 µM palmitoyl-CoA
  colorimetric CoA release assay: release of CoA-SH from the SPT-catalyzed condensation of palmitoyl-CoA and L-serine

## CCCCCCCCCCCCCCCC(=O)SCCNC(=O)CCNC(=O)[C@H](O)C(C)(C)COP(=O)(O)OP(=O)(O)OC[C@H]1O[C@@H](n2cnc3c(N)ncnc32)[C@H](O)[C@@H]1OP(=O)(O)O [palmitoyl-CoA]
[1]; 15 mM L-serine
  colorimetric CoA release assay: release of CoA-SH from the SPT-catalyzed condensation of palmitoyl-CoA and L-serine

## CC(C)[C@@H](C)/C=C/[C@@H](C)[C@H]1CC[C@H]2C3=CC=C4C[C@@H](O)CC[C@]4(C)[C@H]3CC[C@]12C [ergosterol]
SPOT complex (monomer)
  cryo-EM structure, 3.4 Å: in which three structurally well-resolved ergosterol molecules are positioned
[2]
  cryo-EM structure, 3.3 Å; coupled enzymatic assay of bound sterol: Lcb1-TM0a directly interacts with three molecules of ergosterol

B1: Lcb2 (enzyme, S. cerevisiae)
chain: MSTPANYTRVPLCEPEELPDDIQKENEYGTLDSPGHLYQVKSRHGKPLPEPVVDTPPYYISLLTYLNYLILIILGHVHDFLGMTFQKNKHLDLLEHDGLAPWFSNFESFYVRRIKMRIDDCFSRPTTGVPGRFIRCIDRISHNINEYFTYSGAVYPCMNLSSYNYLGFAQSKGQCTDAALESVDKYSIQSGGPRAQIGTTDLHIKAEKLVARFIGKEDALVFSMGYGTNANLFNAFLDKKCLVISDELNHTSIRTGVRLSGAAVRTFKHGDMVGLEKLIREQIVLGQPKTNRPWKKILICAEGLFSMEGTLCNLPKLVELKKKYKCYLFIDEAHSIGAMGPTGRGVCEIFGVDPKDVDILMGTFTKSFGAAGGYIAADQWIIDRLRLDLTTVSYSESMPAPVLAQTISSLQTISGEICPGQGTERLQRIAFNSRYLRLALQRLGFIVYGVADSPVIPLLLYCPSKMPAFSRMMLQRRIAVVVVAYPATPLIESRVRFCMSASLTKEDIDYLLRHVSEVGDKLNLKSNSGKSSYDGKRQRWDIEEVIRRTPEDCKDDKYFVN
modifications: PLP forms an internal aldimine with K366
notes: Lcb2, catalytic subunit of serine palmitoyltransferase, S. cerevisiae; also called SPT subunit; source: S. cerevisiae, co-expressed with the other SPOTS subunits under the GAL1 promoter
[3]
  binding result: binds
